# ChEMBL document CHEMBL4138123, “Design, synthesis and biological evaluation of novel pyrazolochalcones as potential modulators of PI3K/Akt/mTOR pathway and inducers of apoptosis in breast cancer cells” (Eur J Med Chem, 2017)
# Legend:
# [1] = tested on: OVCAR-8; assay: Cytotoxicity against human OVCAR8 cells assessed as cell growth at 10 uM after 48 hrs by sulforhodamine B assay relative to control; assay type: functional; settings: OVCAR-8, 48 h, read-out: Activity
# [2] = tested on: SN12C; assay: Cytotoxicity against human SN12C cells assessed as cell growth at 10 uM after 48 hrs by sulforhodamine B assay relative to control; assay type: functional; settings: read-out: Activity
# [3] = tested on: MDA-MB-231; assay: Cytotoxicity against human MDA-MB-231 cells assessed as cell growth at 0.1 uM after 48 hrs by sulforhodamine B assay relative to control; assay type: functional; settings: MDA-MB-231, 48 h, read-out: Activity
# [4] = tested on: KM12; assay: Cytotoxicity against human KM12 cells assessed as cell growth at 10 uM after 48 hrs by sulforhodamine B assay relative to control; assay type: functional; settings: KM12, 48 h, read-out: Activity
# [5] = tested on: BT-549; assay: Cytotoxicity against human BT549 cells assessed as cell growth at 10 uM after 48 hrs by sulforhodamine B assay relative to control; assay type: functional; settings: BT-549, 48 h, read-out: Activity
# [6] = tested on: NCI-H23; assay: Cytotoxicity against human NCI-H23 cells assessed as cell growth at 1 uM after 48 hrs by sulforhodamine B assay relative to control; assay type: functional; settings: NCI-H23, 48 h, read-out: Activity
# [7] = tested on: U-251; assay: Cytotoxicity against human U251 cells assessed as growth inhibition after 48 hrs by sulforhodamine B assay; assay type: functional; settings: U-251, 48 h
# [8] = tested on: HCC 2998; assay: Cytotoxicity against human HCC2998 cells assessed as cell growth at 10 uM after 48 hrs by sulforhodamine B assay relative to control; assay type: functional; settings: HCC 2998, 48 h, read-out: Activity
# [9] = tested on: OVCAR-3; assay: Cytotoxicity against human OVCAR3 cells assessed as cell growth at 10 uM after 48 hrs by sulforhodamine B assay relative to control; assay type: functional; settings: OVCAR-3, 48 h, read-out: Activity
# [10] = tested on: NCI-H23; assay: Cytotoxicity against human NCI-H23 cells assessed as cell growth at 0.1 uM after 48 hrs by sulforhodamine B assay relative to control; assay type: functional; settings: NCI-H23, 48 h, read-out: Activity
# [11] = tested on: ACHN; assay: Cytotoxicity against human ACHN cells assessed as cell growth at 0.1 uM after 48 hrs by sulforhodamine B assay relative to control; assay type: functional; settings: read-out: Activity
# [12] = tested on: HCT-15; assay: Cytotoxicity against human HCT15 cells assessed as growth inhibition after 48 hrs by sulforhodamine B assay; assay type: functional; settings: HCT-15, 48 h
# [13] = tested on: MDA-MB-435; assay: Cytotoxicity against human MDA-MB-435 cells assessed as cell growth at 0.1 uM after 48 hrs by sulforhodamine B assay relative to control; assay type: functional; settings: MDA-MB-435, 48 h, read-out: Activity
# [14] = tested on: MDA-MB-231; assay: Cytotoxicity against human MDA-MB-231 cells assessed as growth inhibition after 48 hrs by MTT assay; assay type: functional, cell-based; settings: MDA-MB-231, 48 h
# [15] = tested on: SK-MEL-28; assay: Cytotoxicity against human SK-MEL-28 cells assessed as cell growth at 10 uM after 48 hrs by sulforhodamine B assay relative to control; assay type: functional; settings: SK-MEL-28, 48 h, read-out: Activity
# [16] = tested on: COLO 205; assay: Cytotoxicity against human COLO205 cells assessed as growth inhibition after 48 hrs by sulforhodamine B assay; assay type: functional; settings: COLO 205, 48 h
# [17] = tested on: SF-268; assay: Cytotoxicity against human SF268 cells assessed as cell growth at 100 uM after 48 hrs by sulforhodamine B assay relative to control; assay type: functional; settings: SF-268, 48 h, read-out: Activity
# [18] = tested on: MOLT-4; assay: Cytotoxicity against human MOLT4 cells assessed as cell growth at 0.01 uM after 48 hrs by sulforhodamine B assay relative to control; assay type: functional; settings: MOLT-4, 48 h, read-out: Activity
# [19] = tested on: COLO 205; assay: Cytotoxicity against human COLO205 cells assessed as cell growth at 0.01 uM after 48 hrs by sulforhodamine B assay relative to control; assay type: functional; settings: COLO 205, 48 h, read-out: Activity
# [20] = tested on: K562; assay: Cytotoxicity against human K562 cells assessed as cell growth at 100 uM after 48 hrs by sulforhodamine B assay relative to control; assay type: functional; settings: K562, 48 h, read-out: Activity
# [21] = tested on: MDA-MB-231; assay: Cytotoxicity against human MDA-MB-231 cells assessed as cell growth at 0.01 uM after 48 hrs by sulforhodamine B assay relative to control; assay type: functional; settings: MDA-MB-231, 48 h, read-out: Activity
# [22] = tested on: UACC-257; assay: Cytotoxicity against human UACC257 cells assessed as growth inhibition after 48 hrs by sulforhodamine B assay; assay type: functional; settings: UACC-257, 48 h
# [23] = tested on: UACC-62; assay: Cytotoxicity against human UACC62 cells assessed as cell growth at 0.01 uM after 48 hrs by sulforhodamine B assay relative to control; assay type: functional; settings: UACC-62, 48 h, read-out: Activity
# [24] = tested on: OVCAR-8; assay: Cytotoxicity against human OVCAR8 cells assessed as cell growth at 0.01 uM after 48 hrs by sulforhodamine B assay relative to control; assay type: functional; settings: OVCAR-8, 48 h, read-out: Activity
# [25] = tested on: Hs-578T; assay: Cytotoxicity against human Hs 578T cells assessed as cell growth at 0.01 uM after 48 hrs by sulforhodamine B assay relative to control; assay type: functional; settings: read-out: Activity
# [26] = tested on: SF-268; assay: Cytotoxicity against human SF268 cells assessed as cell growth at 0.01 uM after 48 hrs by sulforhodamine B assay relative to control; assay type: functional; settings: SF-268, 48 h, read-out: Activity
# [27] = tested on: A498; assay: Cytotoxicity against human A498 cells assessed as cell growth at 10 uM after 48 hrs by sulforhodamine B assay relative to control; assay type: functional; settings: A498, 48 h, read-out: Activity
# [28] = tested on: HL-60(TB); assay: Cytotoxicity against human HL-60(TB) cells assessed as cell growth at 10 uM after 48 hrs by sulforhodamine B assay relative to control; assay type: functional; settings: HL-60, 48 h, read-out: Activity
# [29] = tested on: HCT-116; assay: Cytotoxicity against human HCT116 cells assessed as cell growth at 100 uM after 48 hrs by sulforhodamine B assay relative to control; assay type: functional; settings: HCT-116, 48 h, read-out: Activity
# [30] = tested on: MDA-MB-468; assay: Cytotoxicity against human MDA-MB-468 cells assessed as cell growth at 0.1 uM after 48 hrs by sulforhodamine B assay relative to control; assay type: functional; settings: MDA-MB-468, 48 h, read-out: Activity
# [31] = tested on: PC-3; assay: Cytotoxicity against human PC3 cells assessed as cell growth at 1 uM after 48 hrs by sulforhodamine B assay relative to control; assay type: functional; settings: PC-3, 48 h, read-out: Activity
# [32] = tested on: OVCAR-8; assay: Cytotoxicity against human OVCAR8 cells assessed as cell growth at 1 uM after 48 hrs by sulforhodamine B assay relative to control; assay type: functional; settings: OVCAR-8, 48 h, read-out: Activity
# [33] = tested on: MDA-MB-468; assay: Cytotoxicity against human MDA-MB-468 cells assessed as cell growth at 0.01 uM after 48 hrs by sulforhodamine B assay relative to control; assay type: functional; settings: MDA-MB-468, 48 h, read-out: Activity
# [34] = tested on: SK-MEL-28; assay: Cytotoxicity against human SK-MEL-28 cells assessed as cell growth at 0.01 uM after 48 hrs by sulforhodamine B assay relative to control; assay type: functional; settings: SK-MEL-28, 48 h, read-out: Activity
# [35] = tested on: MDA-MB-231; assay: Cytotoxicity against human MDA-MB-231 cells assessed as cell growth at 10 uM after 48 hrs by sulforhodamine B assay relative to control; assay type: functional; settings: MDA-MB-231, 48 h, read-out: Activity
# [36] = tested on: SR; assay: Cytotoxicity against human SR cells assessed as cell growth at 0.1 uM after 48 hrs by sulforhodamine B assay relative to control; assay type: functional; settings: read-out: Activity
compound,measurement,setting,value
COc1ccc(C(=O)/C=C/c2cc(-c3ccc4c(c3)OCO4)n[nH]2)cc1OC,growth at 10 µM,[1],-27%
same,growth at 10 µM,[2],11%
same,growth at 0.1 µM,[3],96%
same,growth at 10 µM,[4],-2%
same,growth at 10 µM,[5],-57%
same,growth at 1 µM,[6],85%
same,LC50,[7],23.8 µM
same,TGI,[7],5.37 µM
same,growth at 10 µM,[8],27%
same,growth at 10 µM,[9],-47%
same,growth at 0.1 µM,[10],89%
same,growth at 0.1 µM,[11],100%
same,LC50,[12],> 100 µM
same,TGI,[12],> 100 µM
same,growth at 0.1 µM,[13],99%
same,IC50,[14],1500 nM
same,growth at 10 µM,[15],36%
same,LC50,[16],45.9 µM
same,TGI,[16],14 µM
same,growth at 100 µM,[17],-74%
same,growth at 0.01 µM,[18],97%
same,growth at 0.01 µM,[19],102%
same,growth at 100 µM,[20],-12%
same,growth at 0.01 µM,[21],102%
same,LC50,[22],56.4 µM
same,TGI,[22],22.1 µM
same,growth at 0.01 µM,[23],98%
same,growth at 0.01 µM,[24],99%
same,growth at 0.01 µM,[25],96%
same,growth at 0.01 µM,[26],93%
same,growth at 10 µM,[27],-43%
same,growth at 10 µM,[28],3%
same,growth at 100 µM,[29],-64%
same,growth at 0.1 µM,[30],90%
same,growth at 1 µM,[31],74%
same,growth at 1 µM,[32],89%
same,growth at 0.01 µM,[33],92%
same,growth at 0.01 µM,[34],99%
same,growth at 10 µM,[35],-14%
same,growth at 0.1 µM,[36],88%
COc1ccc(-c2cc(/C=C/C(=O)c3ccc(N)cc3)[nH]n2)cc1,growth at 10 µM,[1],9%
same,growth at 10 µM,[2],-16%
same,growth at 0.1 µM,[3],89%
same,growth at 10 µM,[4],-67%
same,growth at 10 µM,[5],-37%
same,growth at 1 µM,[6],93%
same,GI50,[7],1240 nM
same,LC50,[7],5.3 µM
same,TGI,[7],2.57 µM
same,growth at 10 µM,[8],-90%
same,growth at 10 µM,[9],-70%
same,growth at 0.1 µM,[10],94%
same,growth at 0.1 µM,[11],105%
same,GI50,[12],1000 nM
same,LC50,[12],34.9 µM
same,TGI,[12],3.62 µM
same,growth at 0.1 µM,[13],103%
same,IC50,[14],1700 nM
same,growth at 10 µM,[15],-60%
same,GI50,[16],1850 nM
same,LC50,[16],6.41 µM
same,TGI,[16],3.45 µM
same,growth at 100 µM,[17],-61%
same,growth at 0.01 µM,[18],97%
same,growth at 0.01 µM,[19],97%
same,growth at 100 µM,[20],-60%
same,growth at 0.01 µM,[21],93%
same,GI50,[22],1900 nM
same,LC50,[22],9.36 µM
same,TGI,[22],4.21 µM
same,growth at 0.01 µM,[23],96%
same,growth at 0.01 µM,[24],96%
same,growth at 0.01 µM,[25],98%
same,growth at 0.01 µM,[26],95%
same,growth at 10 µM,[27],-39%
same,growth at 10 µM,[28],-8%
same,growth at 100 µM,[29],-15%
same,growth at 0.1 µM,[30],86%
same,growth at 1 µM,[31],81%
same,growth at 1 µM,[32],76%
same,growth at 0.01 µM,[33],103%
same,growth at 0.01 µM,[34],98%
same,growth at 10 µM,[35],-7%
same,growth at 0.1 µM,[36],98%
COc1ccc(-c2cc(/C=C/C(=O)c3ccc4c(c3)OCO4)[nH]n2)cc1OC,GI50,[7],1200 nM
same,GI50,[12],1090 nM
same,IC50,[14],2300 nM
same,GI50,[16],1550 nM
same,GI50,[22],2160 nM
